From US20230113037A1 (Bayer Aktiengesellschaft, priority 2019, published 2023)
“And” between values parts separate entries of the source, which are not always exact repeats. Identical values can stand only once. Like-named read-outs stand apart in the source and are kept apart here.

What was measured:
[1] = biological target: T1, AHR (Homo sapiens, UniProt P35869); test: In vitro assay 1: antagonism in human cell line (AHR transactivation, firefly luciferase reporter, kynurenic acid prestimulated); format: cell-based; details: AHR Antagonism Human IC50 [M], firefly luciferase reporter
T1 construct: U87 MG glioblastoma cells (ATCC #HTB-14) endogenously expressing AHR; endogenous in cells; host or cells: U87 MG glioblastoma cells (ATCC #HTB-14)
T1 sequence (P35869 11-848): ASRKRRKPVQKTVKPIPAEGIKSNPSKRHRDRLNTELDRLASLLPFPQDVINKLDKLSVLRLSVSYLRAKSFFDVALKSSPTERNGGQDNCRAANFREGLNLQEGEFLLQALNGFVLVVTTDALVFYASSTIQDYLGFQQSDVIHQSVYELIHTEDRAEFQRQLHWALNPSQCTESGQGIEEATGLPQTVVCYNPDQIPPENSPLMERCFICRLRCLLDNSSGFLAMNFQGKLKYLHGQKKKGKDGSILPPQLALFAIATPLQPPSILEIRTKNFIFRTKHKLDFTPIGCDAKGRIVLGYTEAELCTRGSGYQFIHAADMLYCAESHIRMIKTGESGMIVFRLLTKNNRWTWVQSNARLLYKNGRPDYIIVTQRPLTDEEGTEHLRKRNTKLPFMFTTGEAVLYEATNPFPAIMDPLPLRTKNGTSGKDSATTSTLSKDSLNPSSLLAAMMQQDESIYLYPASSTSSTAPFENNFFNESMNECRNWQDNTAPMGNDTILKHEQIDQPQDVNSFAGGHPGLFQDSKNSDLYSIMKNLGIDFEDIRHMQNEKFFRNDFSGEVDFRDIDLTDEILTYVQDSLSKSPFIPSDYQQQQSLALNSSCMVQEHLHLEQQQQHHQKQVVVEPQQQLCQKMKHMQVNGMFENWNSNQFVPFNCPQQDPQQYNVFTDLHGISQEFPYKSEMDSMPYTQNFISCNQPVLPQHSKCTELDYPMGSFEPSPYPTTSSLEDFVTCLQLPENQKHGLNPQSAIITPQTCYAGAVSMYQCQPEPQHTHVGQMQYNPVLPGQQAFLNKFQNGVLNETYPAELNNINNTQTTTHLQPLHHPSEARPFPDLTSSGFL
Outline: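 U87 MG glioblastoma cells with endogenous AHR, stably carrying a DRE-driven firefly luciferase reporter and constitutive Renilla reporter, prestimulated with kynurenic acid before compound addition. Firefly and Renilla read by dual luciferase; Renilla flags toxicity; normalized to controls (150 μM kynurenic acid + 5 μM staurosporine as full inhibition); repeat values averaged or median.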

[2] = biological target: T2, AHR (Mus musculus, UniProt P30561); test: In vitro assay 3: antagonism in mouse cell line (AHR transactivation, firefly luciferase reporter, kynurenic acid prestimulated); format: cell-based
T2 sequence (P30561 1-848 P471L/N533S/M589L): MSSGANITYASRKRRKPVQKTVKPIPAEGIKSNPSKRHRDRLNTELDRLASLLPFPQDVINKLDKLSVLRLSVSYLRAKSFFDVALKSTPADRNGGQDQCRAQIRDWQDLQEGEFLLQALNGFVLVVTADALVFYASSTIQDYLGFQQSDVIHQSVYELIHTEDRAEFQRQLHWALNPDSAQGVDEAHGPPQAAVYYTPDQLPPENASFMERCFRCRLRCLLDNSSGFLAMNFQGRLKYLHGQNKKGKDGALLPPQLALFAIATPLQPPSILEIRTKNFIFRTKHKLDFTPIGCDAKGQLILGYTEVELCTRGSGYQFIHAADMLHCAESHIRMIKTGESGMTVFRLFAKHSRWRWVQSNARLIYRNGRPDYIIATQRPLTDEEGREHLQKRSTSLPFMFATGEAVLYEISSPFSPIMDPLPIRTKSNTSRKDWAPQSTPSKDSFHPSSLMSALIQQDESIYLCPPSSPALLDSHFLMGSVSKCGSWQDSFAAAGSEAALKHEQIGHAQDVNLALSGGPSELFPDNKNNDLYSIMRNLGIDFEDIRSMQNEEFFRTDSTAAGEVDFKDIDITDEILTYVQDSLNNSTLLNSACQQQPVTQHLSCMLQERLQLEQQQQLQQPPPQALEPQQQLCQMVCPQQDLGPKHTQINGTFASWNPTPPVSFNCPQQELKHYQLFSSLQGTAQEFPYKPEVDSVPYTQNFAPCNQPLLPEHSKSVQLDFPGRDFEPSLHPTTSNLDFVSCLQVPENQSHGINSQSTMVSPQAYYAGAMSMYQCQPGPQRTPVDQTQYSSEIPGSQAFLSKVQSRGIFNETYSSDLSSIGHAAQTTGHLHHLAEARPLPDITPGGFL
Outline: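 Cells were first stimulated with kynurenic acid, then exposed to test compound, after which firefly luciferase from a DRE-containing AHR reporter was read out. Signal was scaled between positive and negative controls. Cells not given kynurenic acid provided the inhibition reference.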

[3] = Hepa 1c1c7 cells, 200 μM kynurenic acid, 20 hours, firefly luciferase reporter, read-out: AHR Antagonism Mouse IC50

| IC50 [1] | IC50 [2, 3] | SMILES | IC50 ([2]; read-out: AHR Antagonism Mouse IC50, Hepa 1c1c7 cells, 200 μM kynurenic acid, 20 hours, firefly luciferase reporter) [nM] |
| --- | --- | --- | --- |
| 4.76e-08 M | 12.5 nM | CCCNC(=O)[C@H](C)Nc1nc2c(Br)cccc2c2nc(-c3ccc(Cl)cc3OC(F)F)nn12 [Example 802, N^2-{7-bromo-2-[4-chloro-2-(difluoromethoxy)phenyl][1,2,4]triazolo[1,5-c]quinazolin-5-yl}-N-propyl-L-alaninamide] |  |
| 6.42e-09 M | 3 nM | CCCCNC(=O)[C@@H](CC)Nc1nc2c(Br)cccc2c2nc(-c3ccc(Cl)cc3OC(F)F)nn12 [Example 804, (2R)-2-({7-bromo-2-[4-chloro-2-(difluoromethoxy)phenyl][1,2,4]triazolo[1,5-c]quianzolin-5-yl}amino)-N-butylbutanamide] |  |
| 1.9e-07 M | 70.4 nM | CC[C@H](Nc1nc2c(C(F)(F)F)cccc2c2nc(-c3ccnn3C)nn12)C(N)=O [Example 805, (2S)-2-{[2-(1-methyl-1H-pyrazol-5-yl)-7-(trifluoromethyl)[1,2,4]triazolo[1,5-c]quinazolin-5-yl]amino}butanamide] |  |
| 3.49e-09 M | 1.14 nM | CC[C@@H](Nc1nc2c(C(F)(F)F)cccc2c2nc(-c3ccnn3C)nn12)C(N)=O [Example 806, (2R)-2-{[2-(1-methyl-1H-pyrazol-5-yl)-7-(trifluoromethyl)[1,2,4]triazolo[1,5-c]quinazolin-5-yl]amino}butanamide] |  |
| 1.1e-07 M | 63.8 nM | Cn1nccc1-c1nc2c3cccc(C(F)(F)F)c3nc(N[C@H]3CCCCNC3=O)n2n1 [Example 807, (3S)-3-{[2-(1-methyl-1H-pyrazol-5-yl)-7-(trifluoromethyl)[1,2,4]triazolo[1,5-c]quinazolin-5-yl]amino}azepan-2-one] |  |
| 8.12e-10 M | 1.16 nM | Cn1nccc1-c1nc2c3cccc(C(F)(F)F)c3nc(N[C@@H]3CCCCNC3=O)n2n1 [Example 808, (3R)-3-{[2-(1-methyl-1H-pyrazol-5-yl)-7-(trifluoromethyl)[1,2,4]triazolo[1,5-c]quinazolin-5-yl]amino}azepan-2-one] |  |
| 1.82e-08 M | 9.05 nM | COc1ccc(-c2nc3c4cccc(Br)c4nc(N[C@H](C)C(=O)NCCCN(C)C)n3n2)cc1 [Example 809, N^2-[7-bromo-2-(4-methoxyphenyl)[1,2,4]triazolo[1,5-c]quinazolin-5-yl]-N-[3-(dimethylamino)propyl]-D-alaninamide] |  |
| > 5.71e-06 M and 4.65e-06 M and > 2e-06 M | 43.3 nM | CCCNC(=O)[C@H](C)Nc1nc2c(Br)cccc2c2nc(-c3ccc(Cl)cc3OC(F)(F)F)nn12 [Example 811, N^2-{7-bromo-2-[4-chloro-2-(trifluoromethoxy)phenyl][1,2,4]triazolo[1,5-c]quinazolin-5-yl}-N-propyl-L-alaninamide] |  |
| 3.57e-09 M | 2.47 nM | CCCNC(=O)[C@@H](CC)Nc1nc2c(Br)cccc2c2nc(-c3ccc(Cl)cc3OC(F)(F)F)nn12 [Example 812, (2R)-2-({7-bromo-2-[4-chloro-2-(trifluoromethoxy)phenyl][1,2,4]triazolo[1,5-c]quinazolin-5-yl}amino)-N-propylbutanamide] |  |
| > 2e-06 M | 1920 nM and > 2000 nM | CCCCNC(=O)[C@H](CC)Nc1nc2c(Br)cccc2c2nc(-c3ccc(Cl)cc3OC(F)(F)F)nn12 [Example 813, (2S)-2-({7-bromo-2-[4-chloro-2-(trifluoromethoxy)phenyl][1,2,4]triazolo[1,5-c]quinazolin-5-yl}amino)-N-butylbutanamide] |  |
| 2.5e-08 M | 11 nM | CCCCNC(=O)[C@@H](CC)Nc1nc2c(Br)cccc2c2nc(-c3ccc(Cl)cc3OC(F)(F)F)nn12 [Example 814, (2R)-2-({7-bromo-2-[4-chloro-2-(trifluoromethoxy)phenyl][1,2,4]triazolo[1,5-c]quinazolin-5-yl}amino)-N-butylbutanamide] |  |
| 2.78e-10 M | 1.6 nM | Cc1nn(C)cc1-c1nc2c3cccc(Br)c3nc(N[C@@H]3CCCCNC3=O)n2n1 [Example 815, (3R)-3-{[7-bromo-2-(1,3-dimethyl-1H-pyrazol-4-yl)[1,2,4]triazolo[1,5-c]quinazolin-5-yl]amino}azepan-2-one] |  |
| 1.05e-09 M | 0.99 nM | O=C1NCCCC[C@H]1Nc1nc2c(Cl)cccc2c2nc(-c3cnn(C4CC4)c3)nn12 [Example 816, (3R)-3-{[7-chloro-2-(1-cyclopropyl-1H-pyrazol-4-yl)[1,2,4]triazolo[1,5-c]quinazolin-5-yl]amino}azepan-2-one] |  |
| 5.24e-10 M | 1.94 nM | CC(C)n1cc(-c2nc3c4cccc(Cl)c4nc(N[C@@H]4CCCCNC4=O)n3n2)cn1 [Example 817, (3R)-3-({7-chloro-2-[1-(propan-2-yl)-1H-pyrazol-4-yl][1,2,4]triazolo[1,5-c]quinazolin-5-yl}amino)azepan-2-one] |  |
| 6.2e-10 M | 2.18 nM | CCn1cc(-c2nc3c4cccc(Cl)c4nc(N[C@@H]4CCCCNC4=O)n3n2)cn1 [Example 818, (3R)-3-{[7-chloro-2-(1-ethyl-1H-pyrazol-4-yl)[1,2,4]triazolo[1,5-c]quinazolin-5-yl]amino}azepan-2-one] |  |
| 2.31e-10 M | 0.385 nM | CCn1cc(-c2nc3c4cccc(Cl)c4nc(N[C@@H]4CCCCNC4=O)n3n2)c(C)n1 [Example 819, (3R)-3-{[7-chloro-2-(1-ethyl-3-methyl-1H-pyrazol-4-yl)[1,2,4]triazolo[1,5-c]quinazolin-5-yl]amino}azepan-2-one] |  |
| 6.33e-09 M | 71.5 nM | CC(C)n1cc(-c2nc3c4cccc(C5CC5)c4nc(N[C@@H]4CCCCNC4=O)n3n2)cn1 [Example 820, (3R)-3-({7-cyclopropyl-2-[1-(propan-2-yl)-1H-pyrazol-4-yl][1,2,4]triazolo[1,5-c]quinazolin-5-yl}amino)azepan-2-one] |  |
| 2.98e-10 M | 0.739 nM | Cc1nn(C)cc1-c1nc2c3cccc(Cl)c3nc(N[C@@H]3CCCCNC3=O)n2n1 [Example 821, (3R)-3-{[7-chloro-2-(1,3-dimethyl-1H-pyrazol-4-yl)[1,2,4]triazolo[1,5-c]quinazolin-5-yl]amino}azepan-2-one] |  |
| 7.23e-10 M | 1.68 nM | CC(C)n1cc(-c2nc3c4cccc(Br)c4nc(N[C@@H]4CCCCNC4=O)n3n2)cn1 [Example 822, (3R)-3-({7-bromo-2-[1-(propan-2-yl)-1H-pyrazol-4-yl][1,2,4]triazolo[1,5-c]quinazolin-5-yl}amino)azepan-2-one] |  |
| 2.13e-09 M | 3.01 nM | Cc1c(-c2nc3c4cccc(Br)c4nc(N[C@@H]4CCCCNC4=O)n3n2)cnn1C [Example 823, (3R)-3-{[7-bromo-2-(1,5-dimethyl-1H-pyrazol-4-yl)[1,2,4]triazolo[1,5-c]quinazolin-5-yl]amino}azepan-2-one] |  |

| SMILES | IC50 [1] | IC50 [2, 3] | IC50 ([2]; read-out: AHR Antagonism Mouse IC50, Hepa 1c1c7 cells, 200 μM kynurenic acid, 20 hours, firefly luciferase reporter) [nM] |
| --- | --- | --- | --- |
| CC[C@H](Nc1nc2c(Br)cccc2c2nc(-c3ccnn3C)nn12)C(N)=O [Example 801, (2S)-2-{[7-bromo-2-(1-methyl-1H-pyrazol-5-yl)[1,2,4]triazolo[1,5-c]quinazolin-5-yl]amino}butanamide] | 1.04e-07 M |  | 40.5 |
